The subject of data set [1] is HepG2 human cell line. The experiment in a line: HepG2 cytotoxicity assay (CellTiter-Glo). As to conditions: HepG2 IC50 / HUVEC EC50. In general terms: In ATP-based viability assays light output follows the ATP content of the culture.
Protocol: (§1) Cells were seeded in 384-well plates at 1800 cells per well and incubated in a humidified incubator at 37°C, 5% CO2. Compounds were solubilized in 100% DMSO and assayed using a 10-point three-fold serial dilution. Compounds were added 24 hours post cell seeding to a final assay concentration of 1% DMSO and highest compound concentration of 100 μM. CellTiter-Glo® reagent (Promega) was added to 384-well plates after a 72-hour incubation period. Relative luminescent units (RLU) were measured using a Synergy 4 plate reader (Biotek). Raw data were normalized using the average RLU value from negative control (1% DMSO) and expressed as % growth. Growth inhibition curves were fitted using the Levenberg–Marquardt algorithm. The IC50 was defined as the compound concentration that produced 50% of the growth inhibitory response.
Data set [2] in a line: HepG2 cytotoxicity assay (CellTiter-Glo). The settings on record: human, HepG2 cells.
Protocol: as §1
Data set [3] deals with NF-κB nuclear translocation in HUVECs. The experiment in a line: NF-κB nuclear translocation assay (high content imaging, p65 NUC/CYT). The settings on record: for EC50: Homo sapiens, HUVEC; for NF-κB nuclear translocation in response to different inducers vs negative control (1% DMSO): HUVECs stimulated 30 min, 100 ng/mL LPS, 10 μM PMA, 10 μM prostratin, 10 μM calcimycin. In kind it is cell-based, Human. As to the method:
HUVEC cells were seeded at 2500 cells/well in 384-well plates in EBM^TM-2 Basal Medium plus 2% FBS overnight at 37°C in a humidified 5% CO2 incubator. Compounds (columns 3–22) and DMSO (columns 1, 2, 23 and 24) were added to cells using a JANUS Automated Liquid Handling Workstation (Perkin Elmer). […] Plates were incubated at 37°C for 30 min in a humidified 5% CO2 incubator following addition of compounds and controls.
All washing and immunofluorescence staining steps were performed using an EL406 Automated Washer Dispenser (Biotek). Briefly, cells were fixed with 4% paraformaldehyde at RT for 15 min. Cells were washed and incubated at RT for 30 min in 0.05% Triton X-100, 0.25% IgG-free BSA, 0.25% normal goat serum in Tris-buffered saline. Cells were stained with the p65 Mouse Monoclonal Primary Antibody (Santa Cruz, sc-8008) at a final concentration of 1 μg/mL in TBS, 0.05% Triton X-100,.25% IgG-free BSA and incubated overnight at 4°C. Cells were washed and stained with the Alexa Fluor 488 Goat anti-Mouse IgG (H+L) cross-adsorbed secondary antibody at a final concentration of 4 μg/mL in TBS, 0.05% TritonX-100, 0.25% IgG-free BSA for 1 hr at RT in the dark. Cells were washed and 1 μg/mL of DAPI added. Plates were sealed and imaged with an ImageXpress Micro XLS High Content Screening System (Molecular Devices) using FITC and DAPI channels at 20X magnification. Nine fields were captured for each well.
Images were analyzed using the MetaXpress software (Molecular Devices) by creating a custom analysis program in the Custom Module Editor. Briefly, DAPI was used to identify the nucleus of the cell and a nuclear mask created. A secondary mask was created by enlarging the nucleus mask to identify the whole cell. The whole cell mask was then overlaid on the nucleus mask to identify the cytoplasm. The average p65 (NF-κB) pixel intensities in both the nucleus and cytoplasm were quantified and a value assigned to each. A translocation value was calculated by determining the ratio of the average nuclei intensity to the average cytoplasmic intensity of p65 (NUC/CYT). For assay development, the Kruskal-Wallis non parametric test was used to compare the medians of the different groups after correcting for multiple comparison with Dunn’s multiple comparison test using GraphPad Prism 7.04 software. For assay validation, the mean (μ), standard deviation (SD) and coefficient of variation (CV) for nuclear translocation were calculated for the maximum (TNF-α) and minimum (DMSO) activation control wells, maximum and minimum activation plates as well as CVs for 320 test wells. The Z’ (measure of spread between maximum and minimum control signals) was calculated for each plate using the formula: Z^′=1−3(SDMax+SDMin)/|μMax−μMin|, where max is average maximum signal and min is average minimum signal. The EC50 was defined as the concentration that gave half the maximal response.

Data set [4] is described as follows: in vitro. The settings on record: human.
Protocol: as §1
The mark [5] stands for this setting: 0.5 h, NF-κB nuclear translocation, 10-point 3-fold dose response from 100 μM, 30 min, mean ± SD of three independent experiments (* N = 2), unit inferred, μM, read-out: EC50 = Activity in HUVECs.
[6] abbreviates: HUVECs, representative curve of three experiments, 4-parameter fit, dose response from 100μM, unit inferred, read-out: EC50 (Fig 8 dose response curve).

Like-named read-outs stand apart in the source and are kept apart here.

As usually defined, the IC50 is the concentration that inhibits the measured activity by half. The EC50 is the concentration giving half of the maximal effect. Turning to `O=C1C(=Cc2ccc(-c3ccc(Cl)cc3)o2)SC(=S)N1Cc1ccco1` [IDR-0518296], the “selectivity index (SI) = IC50/EC50” value in data set [1] was 7.1. For the same compound, in data set [2], 17 ± 12 µM corresponded to half-maximal inhibition (IC50 at 72 h). Moreover, the concentration for a half-maximal effect (EC50) in data set [3] (setting [5]) was determined as 2.4 ± 1.4 µM.

`Cc1cc(OCCCNCCO)cc(C)c1Cl` [IDR-0137368]: in data set [1], the “selectivity index (SI) = IC50/EC50” value turned out to be 1.1. The same compound gave an IC50 at 72 h in data set [2] of 19 ± 4.9 µM. In addition, the EC50 in data set [3] (setting [5]) stood at 17 ± 14 µM.

Turning to `Cc1cc(C)c2c(N)c(C(=O)c3ccc(Br)cc3)sc2n1` [IDR-0112706], the “selectivity index (SI) = IC50/EC50” value in data set [1] is 2.1. This compound also registered an IC50 at 72 h in data set [2] of 27 ± 3.5 µM. Further, in data set [3] (setting [5]), the EC50 worked out at 13 ± 4.5 µM.

In the case of `Oc1ccccc1/N=C/c1c(O)c(Br)cc2oc3c(c12)CCCC3` [IDR-0139144], the “selectivity index (SI) = IC50/EC50” value in data set [1] worked out at 1.5. This compound also registered an IC50 at 72 h in data set [2] of 18 ± 4.2 µM. Further, the EC50 in data set [3] (setting [5]) came to 12 ± 10 µM.

On to `CN(C)c1ccc(/C=C2\SC(=S)N(N)C2=O)cc1` [IDR-0605186], for which, in data set [1], the “selectivity index (SI) = IC50/EC50” value was above 3.3. The concentration for half-maximal inhibition (IC50) at 72 h in data set [2] was above 50 µM. Also, the EC50 in data set [3] (setting [5]) turned out to be 15 ± 5.9 µM.

As for `Cc1nn(-c2ccccc2)c2c1C(c1ccc(Cl)c(Cl)c1)C(C#N)=C(N)O2` (centres unmarked) [IDR-0516961], in data set [1], the “selectivity index (SI) = IC50/EC50” value is 1.8. In addition, the IC50 at 72 h in data set [2] came to 46 ± 18 µM. Also, in data set [3] (setting [5]), the EC50 worked out at 25 ± 17 µM.

`COc1ccc(Br)cc1/C=C(\C#N)c1nc2ccc(C)cc2[nH]1` [IDR-0605188]: the “selectivity index (SI) = IC50/EC50” value in data set [1] is reported as 3.6. Besides, the IC50 at 72 h in data set [2] was 17 ± 13 µM. Further, in data set [3] (setting [5]), the EC50 was determined as 4.7 ± 3.8 µM.

For `O=C(/C=C1\C=CS(=O)(=O)C1)c1ccccc1` [IDR-0520796], the “selectivity index (SI) = IC50/EC50” value in data set [1] was 1.3. Half-maximal inhibition in data set [2] (IC50 at 72 h) was put at 6.6 ± 1.6 µM. In data set [3] (setting [5]), the EC50 amounted to 5 ± 5.6 µM.

On to TNF-α, for which the “NF-κB nuclear translocation in response to different inducers vs negative control (1% DMSO)” value in data set [3] (10 ng/mL TNF-α) is listed as “most robust NF-κB nuclear translocation”. Besides, the “time of maximum NF-κB activation post stimulation” value in data set [3] (HUVECs, 10 ng/mL TNF-α, fixed at 15, 30, 45 and 60 min) came out at 30 min. Also, the “EC50 of NF-κB nuclear translocation” value in data set [3] (HUVECs, 10-point 3-fold dilutions from 100 ng/mL, 30 min, across three independent experiments) lay in the range of 0.3 to 0.6 ng/mL.

For `CC(=NNc1nc(Cl)c(C#N)c(Cl)c1Cl)c1ccccn1` [IDR-0112703], in data set [1], the “selectivity index (SI) = IC50/EC50” value came to 2.1. This compound also returned an IC50 at 72 h in data set [2] of 13 ± 5 µM. In addition, the EC50 in data set [3] (setting [5]) stood at 6.3 ± 6 µM.

As for “lipopolysaccharide [LPS, reference compound]”, the “NF-κB nuclear translocation in response to different inducers vs negative control (1% DMSO)” value in data set [3] (10 ng/mL TNF-α) is listed as “no difference”.

As to `CC(=O)O[C@@]12C[C@@H](C)[C@@]3(O)[C@@H](C=C(CO)C[C@]4(O)C(=O)C(C)=C[C@@H]34)[C@@H]1C2(C)C` [prostratin, reference compound], in data set [3] (10 ng/mL TNF-α), the “NF-κB nuclear translocation in response to different inducers vs negative control (1% DMSO)” value is listed as “no difference”.

As to `O=c1oc2ccccc2c2nn(Cc3ccccc3)nc12` [IDR-0131600], the “selectivity index (SI) = IC50/EC50” value in data set [1] is 1.9. In addition, 32 ± 0.7 µM corresponded to half-maximal inhibition in data set [2] (IC50 at 72 h). Besides, in data set [3] (setting [5]), the EC50 was 17 ± 3.7 µM.

`O=C1NC(=S)SC1=Cc1ccc(O)cc1O` [IDR-0133275]: the “selectivity index (SI) = IC50/EC50” value in data set [1] is recorded as above 5.5. Also, the IC50 at 72 h in data set [2] was above 100 µM. In addition, the EC50 in data set [3] (setting [5]) came to 18 ± 1.1 µM.

On to `CCCCCCCCCCCCCC(=O)O[C@@H]1[C@@H](C)[C@@]2(O)[C@@H](C=C(CO)C[C@]3(O)C(=O)C(C)=C[C@@H]23)[C@@H]2C(C)(C)[C@]12OC(C)=O` [PMA, phorbol myristate acetate, reference compound], for which the “NF-κB nuclear translocation in response to different inducers vs negative control (1% DMSO)” value in data set [3] (10 ng/mL TNF-α) is recorded as “no difference”.

Consider `CCOc1cc(C=C(C#N)c2nc(-c3ccc(OC)cc3)cs2)ccc1O` [IDR-0605187], for which the “selectivity index (SI) = IC50/EC50” value in data set [1] is 8.6. Moreover, inhibition in data set [2] was half-maximal at 51 ± 31 µM (IC50 at 72 h). In addition, the EC50 in data set [3] (setting [5]) came to 5.9 ± 3.4 µM; in data set [3] (setting [6]), 3.1 µM.

As to `O=[N+]([O-])c1ccc(-c2nc(Cl)oc2-c2ccc([N+](=O)[O-])cc2)cc1` [IDR-0515158], in data set [1], the “selectivity index (SI) = IC50/EC50” value is 33. The compound also showed an IC50 at 72 h in data set [2] of 86 ± 17 µM. Moreover, the EC50 came to 2.6 ± 0.53 µM in data set [3] (0.5 h, read-out: EC50 = Activity in HUVECs) and 2.2 µM in data set [3] (read-out: EC50 (Fig 8 dose response curve)).

As to `CNc1ccc2oc(C[C@H]3O[C@@]4(CC[C@H]3C)O[C@H]([C@H](C)C(=O)c3ccc[nH]3)[C@H](C)C[C@H]4C)nc2c1C(=O)O` [calcimycin, reference compound], the “NF-κB nuclear translocation in response to different inducers vs negative control (1% DMSO)” value in data set [3] (10 ng/mL TNF-α) is listed as “no difference”.

On to `COC(=O)C1=C(C)OC(N)=C(C#N)C1c1ccc(Cl)c(Cl)c1` (centres unmarked) [IDR-0122120], for which the “selectivity index (SI) = IC50/EC50” value in data set [1] amounted to 6.1. Inhibition in data set [2] was half-maximal at 40 ± 5 µM (IC50 at 72 h). Besides, the EC50 in data set [3] (setting [5]) was determined as 6.6 ± 8.1 µM.

As for `N#Cc1c(Cl)nc(N2CCOCC2)c(Cl)c1Cl` [IDR-0112566], the “selectivity index (SI) = IC50/EC50” value in data set [1] is recorded as 7.4. The compound further had an IC50 at 72 h in data set [2] of 28 ± 0.7 µM. For the same compound, the EC50 in data set [3] (setting [5]) is 3.8 ± 1.4 µM; in data set [3] (setting [6]), 2.1 µM.

For `CCCCNCCCCOc1ccc2ccccc2c1` [IDR-0137875], the “selectivity index (SI) = IC50/EC50” value in data set [1] is reported as 1.1. Also, in data set [2], the IC50 at 72 h is 16 ± 0.71 µM. Also, the EC50 in data set [3] (setting [5]) amounted to 15 ± 3 µM.

`CCOC(=O)C(Cc1ccccc1)NC(=O)c1ccccc1` (centres unmarked) [IDR-0517069]: the “selectivity index (SI) = IC50/EC50” value in data set [1] is above 10. This compound also came in with an IC50 at 72 h in data set [2] above 100 µM. The EC50 in data set [3] (setting [5]) turned out to be 10 ± 1.6 µM; in data set [3] (setting [6]), 8.1 µM.

For the compound `Nc1ccc2c(c1)Cc1cc([N+](=O)[O-])ccc1-2` [IDR-0113345], the “selectivity index (SI) = IC50/EC50” value in data set [1] is listed as 6.3. This compound came in with an IC50 in data set [4] of 54 ± 5 µM. The EC50 in data set [3] (setting [5]) amounted to 8.6 ± 8.9 µM.

(Values after PMC6023200, “High content, high-throughput screening for small molecule inducers of NF-κB translocation” (PLoS ONE, 2018).)
